Consider three molecules from patent US20240180895A1, “USE OF KAPPA OPIOID RECEPTOR AGONISTS TO TREAT CARDIOVASCULAR DISEASE” (Board of Supervisors of Louisiana State University and …, priority 2021, published 2024).

Holding throughout (type): in vivo, rat
In assay [1] the test system is conscious Sprague-Dawley rats. Kind of assay: Acute cardiovascular and renal excretory studies, i.v. bolus (Example 3). To be noted: for Effect on heart rate (HR) / Effect on MAP / Potassium concentration [K+] in cumulative urine / Sodium concentration [Na+] in cumulative urine / Urine osmolality / Total urine output: i.v. bolus; for Effect on heart rate (HR) / Effect on MAP: 90-min protocol; for Effect on MAP: diuretic alone; for Potassium concentration [K+] in cumulative urine / Sodium concentration [Na+] in cumulative urine / Urine osmolality: cumulative 90-min urine, same doses; for Potassium concentration [K+] in cumulative urine / Sodium concentration [Na+] in cumulative urine / Urine osmolality / Total urine output: mean±SEM; for Total urine output: cumulative urine of 90-min protocol, nalfurafine 5 μg kg−1, furosemide 7.5 mg kg−1, HCTZ 2.5 mg kg−1, amiloride 2 mg kg−1, n=6. As to the method: (§1) Animals: Male Sprague-Dawley (SD) rats (Envigo Labs, Indianapolis, IN), 300-350 g, were individually housed under a 12 h light-dark cycle and allowed tap water and standard rodent diet ad libitum. Rats were randomly assigned to experimental groups for all acute and subacute studies. All procedures were approved by the Louisiana State University Health Sciences Center Institutional Animal Care and Use Committee and conducted in accordance with the National Institutes of Health guidelines for the care and use of animals.
Surgical Procedures: Aseptic technique was followed for all surgical procedures. On the morning of the experiment, rats were anesthetized with and maintained under inhaled 2% isoflurane, and polyethylene catheters (PE50; BD Diagnostics, Sparks, MD) were surgically inserted into the left femoral vein and left femoral artery for the infusion of saline and/or drug administration and the recording of arterial blood pressure, respectively. Subsequently, a suprapubic incision was made and a flanged polyethylene catheter (PE240; BD Diagnostics, Sparks, MD) was inserted into the bladder, exteriorized, and sutured to surrounding muscle and skin. Rats were then placed in an elevated restrainer (Krowicki & Kapusta, 2011) to recover from surgery and allow collection of urine. When acute experimental protocols were completed, rats were anesthetized via isoflurane and decapitated.
Acute Cardiovascular and Renal Excretory Studies: Following surgery, rats received an i.v. infusion of isotonic saline at 55 μL min^−1 throughout the duration of the experiment and were allowed 4-6 hours to recover from anesthesia. Arterial catheters were connected to a pressure transducer (MLT0670, ADInstruments, Sydney, Australia), which was connected to Powerlab 8/30 (ADInstruments) for recording of pulsatile and mean arterial blood pressure (MAP) and heart rate (HR). Blood pressure and HR were visualized using LabChart software (v8.1.5; ADInstruments). […] Following this control period, drug or vehicle (isotonic saline) was injected into the femoral vein catheter at a volume of 2 cc kg^−1, and urines were collected in 10 minute periods for a span of 90 minutes. […] All groups are n=6. Urine volume was measured gravimetrically, urine sodium and potassium concentrations were measured using flame photometry (model 943; Instrumentation Laboratories, Lexington, MA), and urine osmolality was measured using a vapor pressure osmometer (model 5600; WESCOR, Logan, UT).
(§2) Experimental Design and Analysis: All results are expressed as mean±SEM. […] Means between groups for total urine output, Na^+ concentration, K^+ concentration, and urine osmolality were compared using a Student's t-test. Statistical significance was characterized as P<0.05. Statistics were carried out using Prism 7.05 software (GraphPad Software, Inc., San Diego, CA) and IBM SPSS Statistics (IBM, Armonk, NY).

The test system of assay [2] is conscious Sprague-Dawley rats. Kind of assay: Metabolic cage renal excretory studies, oral gavage (Example 3). To be noted: oral gavage, mean±SEM; for Potassium concentration [K+] in cumulative urine / Sodium concentration [Na+] in cumulative urine: cumulative 5-hour urine, same doses; for Total urine output: cumulative urine of 5-hour protocol, nalfurafine 150 μg kg−1, furosemide 50 mg kg−1, HCTZ 5 mg kg−1, amiloride 5 mg kg−1, n=6. As to the method:
as §1
Metabolic Cage Renal Excretory Studies: Rats were placed in metabolic cages (model 18cv, Fenco, Cataumet, MA) for 2 hours to allow for acclimation and voiding of residual urine. Following the acclimation period, rats were volume loaded with 20 cc kg^−1 drug or vehicle (isotonic saline) via oral gavage. Urines were collected each hour over a 5-hour period. Following completion of the study rats were returned to their home cages. […] These points are marked on the figures with number of measurements in parentheses.
as §2

The test system of assay [3] is conscious Sprague-Dawley rats. Kind of assay: Acute cardiovascular and renal excretory studies with ICV or IV norBNI pretreatment (Example 4). The procedure: Male Sprague-Dawley rats (Envigo Labs, Indianapolis, IN) were individually housed, allowed tap water and standard rodent diet ad libitum, and kept under a 12-hour light-dark cycle. Rats used in these experiments weighed between 300 and 350 grams and were randomly assigned to experimental groups. All procedures were conducted in accordance with the National Institutes of Health guidelines for the care and use of animals and approved by the Louisiana State University Health Sciences Center Institutional Animal Care and Use Committee.
Aseptic technique was adhered to for all surgeries and detailed surgical methods were followed as previously described.^14 Briefly, 3-5 days before experimentation, rats requiring central ventricle access for administration of drug/vehicle into the brain were anesthetized with ketamine and xylazine and a stainless-steel cannula was stereotaxically implanted into the right lateral cerebral ventricle.^14
On the morning of the experiment, rats were anesthetized and maintained with inhaled 2% isoflurane, and polyethylene catheters were surgically placed into the left femoral artery, left femoral vein, and urinary bladder.^15.16 Following surgery, rats were placed in an elevated restrainer for recovery and collection of urine from an indwelling bladder catheter.^15 After completion of experimental protocols, rats were anesthetized with isoflurane and decapitated.
During stabilization of cardiovascular and renal excretory parameters, rats received an isotonic saline infusion (55 μl/min), which lasted throughout the duration of the experiment. To record mean arterial pressure (MAP) and heart rate (HR), arterial catheters were connected to a pressure transducer (MLT0670, ADInstruments, Sydney, Australia), which was connected to Powerlab 8/30 (ADInstruments) and visualized using LabChart software (v8.1.5; ADInstruments). After one hour of recovery from surgery, rats were pretreated with the KOR antagonist norBNI or isotonic saline vehicle through either an intracerebroventricular (ICV) catheter or intravenous (IV) catheter. […] Next, drug or vehicle (isotonic saline) was injected into the femoral vein and urine samples were collected every 10 minutes during a 90-minute experimental period. The following drug concentrations were used: nalfurafine 5 μg/kg, difelikefalin 10 μg/kg, norBNI 30 mg/kg (IV), norBNI 1 μg/5 μL (ICV). All groups are n=6. Urine sodium and potassium were measured using a flame photometer (model 943; Instrumentation Laboratories, Lexington, MA). Urine volume was measured gravimetrically, and urine osmolality was measured using a vapor pressure osmometer (model 5600; WESCOR, Logan, UT).
All results are expressed as mean±SEM. For determining statistically different changes at time points within a treatment group, means were compared to the control value using 2-way ANOVA with repeated measures and a post hoc Dunnett test following confirmation of a significant F value. For statistically different changes at individual time points between treatment groups, mean values were compared using 2-way ANOVA with repeated measures and a post hoc Sidak test following confirmation of a significant/value. For means between groups for total urine output, urine sodium concentration, urine potassium concentration, and urine osmolality, a Student/test was used. Statistical significance was characterized as P<0.05 and statistics were performed on Prism 7.05 software (GraphPad Software, Inc, San Diego, CA).

As for `N=C(N)NC(=O)c1nc(Cl)c(N)nc1N` [amiloride], in assay [1] (after i.v. bolus), the “Duration of the increase in urine flow rate above control” value amounted to 30 min and the “Time of peak diuresis (urine flow rate)” value is on record as 10 min. In assay [1], the “Effect on heart rate (HR)” value is “Heart rate did not change”, the “Effect on MAP” value is listed as “minimal effects on MAP”, the “Potassium concentration [K+] in cumulative urine” value (“Potassium concentration [K+]” for short) came to 0.85±0.19 μeq ml^−1 and the “Sodium concentration [Na+] in cumulative urine” value (“Sodium concentration [Na+]” below) is 137.60±6.01 μeq ml^−1. In assay [1], this molecule displayed a Urine osmolality of 398.3 ± 18.05 mmol/kg and a Total urine output of 8.42 ± 0.40 mL. Further, in assay [2], the “Potassium concentration [K+]” value came to 4.02±0.54 μeq ml^−1, the “Sodium concentration [Na+]” value came out at 130.9±5.32 μeq ml^−1 and the Total urine output was 8.61 ± 0.63 mL.

In the case of `Oc1ccc2c3c1O[C@H]1c4[nH]c5c(c4C[C@@]4(O)[C@@H](C2)N(CC2CC2)CC[C@]314)C[C@@]1(O)[C@H]2Cc3ccc(O)c4c3[C@@]1(CCN2CC1CC1)[C@H]5O4` [norBNI, norbinaltorphimine], the “Effect of norBNI pretreatment on the diuresis” value is “significantly attenuated the peak increase and duration of the difelikefalin-induced diuresis” in assay [3] (norBNI 1 μg/5 μL ICV before difelikefalin 10 μg/kg IV); “markedly attenuated” in assay [3] (norBNI 1 μg/5 μL ICV before nalfurafine 5 μg/kg IV); “completely blocked the diuresis” in assay [3] (norBNI 30 mg/kg IV before difelikefalin 10 μg/kg IV); “nearly abolished” in assay [3] (norBNI 30 mg/kg IV before nalfurafine 5 μg/kg IV).

`NS(=O)(=O)c1cc2c(cc1Cl)NCNS2(=O)=O` [HCTZ, hydrochlorothiazide]: the “Duration of the increase in urine flow rate above control” value in assay [1] (after i.v. bolus) is given as “returned to baseline levels by 50-min”. For the same molecule, in assay [1], the “Effect on heart rate (HR)” value was “did not produce any changes in MAP or HR”, the “Effect on MAP” value is reported as “did not produce any changes in MAP or HR”, the “Potassium concentration [K+]” value was 14.76±3.12 μeq ml^−1 and the “Sodium concentration [Na+]” value was 155.6±8.04 μeq ml^−1. In assay [1], this molecule had a Urine osmolality of 439.3 ± 15.94 mmol/kg and a Total urine output of 9.22 ± 0.50 mL. For the same molecule, in assay [2], the “Potassium concentration [K+]” value was 26.50±1.91 μeq ml^−1, the “Sodium concentration [Na+]” value is 119.70±3.04 μeq ml^−1 and the Total urine output amounted to 14.55 ± 0.57 mL.
